Activity calls are given as the source filed them.
Experiments:
[1] = target: T1, Methionyl-tRNA synthetase, putative (Trypanosoma brucei brucei, UniProt Q38C91); format: functional, Trypanosoma brucei brucei strain 927/4 GUTat10.1
T1 sequence (Q38C91 whole entry): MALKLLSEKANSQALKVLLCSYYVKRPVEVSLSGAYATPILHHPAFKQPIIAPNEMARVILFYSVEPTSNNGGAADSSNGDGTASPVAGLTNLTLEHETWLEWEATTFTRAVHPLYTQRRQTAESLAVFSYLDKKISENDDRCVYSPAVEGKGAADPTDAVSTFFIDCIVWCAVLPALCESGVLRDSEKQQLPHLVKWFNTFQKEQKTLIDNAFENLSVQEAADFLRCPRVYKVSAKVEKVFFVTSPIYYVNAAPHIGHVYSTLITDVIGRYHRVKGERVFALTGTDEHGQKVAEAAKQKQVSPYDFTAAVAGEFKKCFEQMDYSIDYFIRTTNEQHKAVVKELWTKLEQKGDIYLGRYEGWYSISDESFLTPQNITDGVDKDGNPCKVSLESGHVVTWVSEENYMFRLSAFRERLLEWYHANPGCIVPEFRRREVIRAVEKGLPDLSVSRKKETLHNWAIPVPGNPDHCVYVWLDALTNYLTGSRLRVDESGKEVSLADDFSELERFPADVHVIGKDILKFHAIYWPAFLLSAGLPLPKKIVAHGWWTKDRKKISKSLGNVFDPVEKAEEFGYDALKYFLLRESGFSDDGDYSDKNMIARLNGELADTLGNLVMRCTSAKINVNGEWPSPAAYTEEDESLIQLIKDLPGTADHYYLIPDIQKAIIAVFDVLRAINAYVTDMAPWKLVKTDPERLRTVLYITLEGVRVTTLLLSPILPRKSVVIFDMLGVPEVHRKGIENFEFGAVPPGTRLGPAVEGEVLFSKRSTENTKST

[2] = Counterscreen for inhibitors of Trypanosoma brucei methionyl tRNA synthetase (MetRS): Luminescence-based cell-based high throughput dose response assay to identify compounds that are cytotoxic to Jurkat human T lymphocyte cells.; format: functional
[3] = target: T1, Methionyl-tRNA synthetase, putative; format: functional, Trypanosoma brucei brucei strain 927/4 GUTat10.1; remark: listed apart in the source
[4] = Late stage counterscreen for inhibitors of Trypanosoma brucei methionyl tRNA synthetase (MetRS): Luminescence-based cell-based high throughput dose response assay to identify compounds that are cytotoxic to Jurkat human T lymphocyte cells.; format: functional
[5] = inhibitors of PGC1a acetylation in cells, dose response, cell-based, cherry-picked samples (AID 720514); format: functional;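 also: potency may reflect raised or lowered acetylation signal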
INS1 = experiment: beta cell apoptosis inhibitors, cytokine rescue, dose response, luminescence, retest (AID 449756); format: functional, cell-based; conditions: Rattus norvegicus;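 also: cell death triggered by IL-1 beta plus TNF-alpha plus IFN-gamma mixture; protective hits raise ATP signal compared with cytokine alone wells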
cells [6] = experiment: cells
[7] = cytotoxicity toward NIH3T3 fibroblasts, dose response, counter-screen, cell-based, ATP luminescence, mouse fibroblasts (AID 2010); format: functional;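 also: cells exposed to compound for about 90 hours before reading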
[8] = inhibitors of intracellular T. cruzi replication, confirmation, NIH3T3 host cells, beta-gal luminescence (AID 2044); format: functional, cell-based;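 also: intracellular parasites grown in NIH/3T3 mouse fibroblasts as host cells; luminescent beta-galactosidase reporter signal from transgenic T. cruzi replicating inside host cells; inhibitors lower the luminescence signal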
[9] = target: COUP transcription factor 2 (Homo sapiens, UniProt P24468); experiment: Luminescence-based cell-based high throughput dose response assay to identify inhibitors of COUP-TFII (NR2F2).; format: functional;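 also: HEK293 cells transiently cotransfected with COUP-TFII expression vector and reporter; luciferase reporter luminescence driven by COUP-TFII from the pX2-168 reporter plasmid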
[10] = C. albicans growth with fluconazole, confirmation, fluorescence, retest (AID 2467); format: functional, cell-based
[11] = IGROV1 ovarian cancer cell cytotoxicity, dose response, PAX8 inhibitor project, plate reader, dry powder samples (AID 743043); format: functional, cell-based; conditions: IGROV-1
[12] = cytotoxicity in OV-90 ovarian cancer cells, dose response, PAX8 inhibitor project, cell-based, plate reader, dry powder, SA8 (AID 743149); format: functional
[13] = NIH:OVCAR-3 ovarian cancer cell cytotoxicity, dose response, PAX8 inhibitor project, plate reader, dry powder samples (AID 743044); format: functional, cell-based
Paired box protein Pax-8 = Paired box protein Pax-8 (Homo sapiens, UniProt Q06710); experiment: inhibitors of PAX8-driven TPO luciferase reporter, dose response, RMG-I cells, cherry-pick (AID 687027); format: functional, cell-based;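 also: luciferase reporter driven by Pax8 target thyroperoxidase promoter measured by SteadyGlo luminescence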
[14] = cytotoxicity dependent on PAX8, dose response, cell-based, plate reader, dry powder (AID 743049); format: functional
[15] = cytotoxicity in COV434 cells, dose response, cytotoxicity control for PAX8 inhibitor project, cell-based, plate reader, dry powder, SA7 (AID 743145); format: functional
[16] = PAX2 cell-based inhibition, dose response, selectivity assay for PAX8 inhibitor project, plate reader, dry powder samples (AID 743048); format: functional;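 also: HEK293 cells carrying a WT1 promoter luciferase reporter driven by expressed Pax2; potency is for inhibition of Pax2 driven reporter signal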
[17] = NIH-3T3 fibroblast cytotoxicity, dose response, cytotoxicity control, cell-based, fluorescence, Alamar Blue, secondary assay (AID 2327); format: functional;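 also: NIH-3T3 mouse fibroblasts cultured with fluconazole at 8 µg/mL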
[18] = cytotoxicity in OVCAR4 cells, dose response, cytotoxicity control for PAX8 inhibitor project, cell-based, plate reader, dry powder, SA11 (AID 743150); format: functional; conditions: OVCAR-4
[19] = target: T2, Bifunctional protein GlmU (Mycobacterium tuberculosis, UniProt P9WMN3); experiment: Inhibitors of Mycobacterial Glucosamine-1-phosphate acetyl transferase (GlmU). Secondary screen.; set-up: species or system Mycobacterium tuberculosis H37Rv
T2 sequence (P9WMN3 whole entry): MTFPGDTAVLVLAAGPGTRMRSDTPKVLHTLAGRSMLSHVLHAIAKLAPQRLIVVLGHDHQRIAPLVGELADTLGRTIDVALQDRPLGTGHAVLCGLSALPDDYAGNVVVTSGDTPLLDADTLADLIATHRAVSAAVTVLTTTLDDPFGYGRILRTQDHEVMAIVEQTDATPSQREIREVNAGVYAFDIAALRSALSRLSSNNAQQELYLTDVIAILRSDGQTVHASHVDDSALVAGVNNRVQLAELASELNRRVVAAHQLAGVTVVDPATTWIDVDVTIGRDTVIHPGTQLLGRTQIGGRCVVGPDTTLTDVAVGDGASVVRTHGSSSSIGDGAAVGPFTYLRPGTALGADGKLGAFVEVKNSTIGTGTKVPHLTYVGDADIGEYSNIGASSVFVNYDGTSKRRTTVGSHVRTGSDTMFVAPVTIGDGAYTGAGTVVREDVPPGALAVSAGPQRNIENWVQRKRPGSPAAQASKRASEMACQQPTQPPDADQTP

[20] = target: T3, Dual specificity protein phosphatase 3 (Homo sapiens, UniProt P51452); experiment: VHR1 phosphatase inhibitors, primary screen, biochemical, absorbance, uHTS (AID 1654)
[21] = target: Apoptotic protease-activating factor 1 (Homo sapiens, UniProt O14727); experiment: activation of Apaf-1 mediated apoptosis – fluorescent, uHTS hits, dose response (AID 588554); format: functional
[22] = target: T4, Small ubiquitin-related modifier 1 (Homo sapiens, UniProt P63165); experiment: inhibitors of SUMO1 partner interactions, dose response, biochemical, FRET (AID 624383); format: functional; conditions: read-out: IC50_Mean
[23] = target: 1-phosphatidylinositol 4,5-bisphosphate phosphodiesterase gamma-1 (Homo sapiens, UniProt P19174); experiment: Counterscreen for inhibitors of phospholipase C isozymes (PLC-B3): Fluorescence-based biochemical high throughput dose response assay to identify inhibitors of phospholipase C isozymes (PLC-gamma1).
[24] = target: T5, Dual specificity protein phosphatase 6 (Rattus norvegicus, UniProt Q64346); experiment: MKP-3 phosphatase inhibitors, primary screen, biochemical, rat enzyme, in vitro (AID 425)
T5 sequence (Q64346 whole entry): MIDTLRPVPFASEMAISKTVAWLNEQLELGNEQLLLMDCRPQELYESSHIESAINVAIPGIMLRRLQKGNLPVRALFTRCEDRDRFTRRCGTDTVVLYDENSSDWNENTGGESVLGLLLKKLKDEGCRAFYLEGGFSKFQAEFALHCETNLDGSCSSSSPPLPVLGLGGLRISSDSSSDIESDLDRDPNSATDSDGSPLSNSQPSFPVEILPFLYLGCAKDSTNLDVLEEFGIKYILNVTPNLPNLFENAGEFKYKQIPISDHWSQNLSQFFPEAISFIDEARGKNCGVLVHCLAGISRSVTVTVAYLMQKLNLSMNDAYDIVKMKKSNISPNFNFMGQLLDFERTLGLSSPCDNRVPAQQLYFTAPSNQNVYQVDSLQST

[25] = target: 1-phosphatidylinositol 4,5-bisphosphate phosphodiesterase beta-3 (Homo sapiens, UniProt Q01970); experiment: Fluorescence-based biochemical high throughput dose response assay to identify inhibitors of phospholipase C isozymes (PLC-B3).
[26] = target: T4, Small ubiquitin-related modifier 1; experiment: inhibitors of SUMO1 peptide binding, dose response, biochemical, fluorescence polarization, uHTS hits (AID 624382); format: functional; conditions: read-out: IC50_Mean
[27] = target: Induced myeloid leukemia cell differentiation protein Mcl-1 (Homo sapiens, UniProt Q07820); format: functional
[28] = target: T3, Dual specificity protein phosphatase 3; experiment: VHR1 phosphatase inhibitors, biochemical (AID 1878)
cells [29] = experiment: cells; remark: listed apart in the source
[30] = Luminescence Cell-Based Dose Response HTS to Identify Inhibitors of 5'UTR Stem-Loop Driven Prion Protein mRNA Translation in H4 Neuroglioblastoma Cells. [Related pubchem assays: 1827 (Project Summary), 1813 (Primary HTS)]; format: functional
[31] = inhibitors of SNCA 5'UTR-driven reporter translation, confirmation, H4 neuroglioma cells, luminescence (AID 1988); format: functional, cell-based
[32] = inhibitors of firefly luciferase expression or activity, dose response, H4 neuroglioma cells, luminescence (AID 1990); format: functional, cell-based

T4 sequence (P63165 whole entry): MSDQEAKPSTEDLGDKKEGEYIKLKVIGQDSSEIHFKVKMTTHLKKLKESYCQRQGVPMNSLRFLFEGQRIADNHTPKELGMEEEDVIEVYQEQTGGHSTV
T3 sequence (P51452 whole entry): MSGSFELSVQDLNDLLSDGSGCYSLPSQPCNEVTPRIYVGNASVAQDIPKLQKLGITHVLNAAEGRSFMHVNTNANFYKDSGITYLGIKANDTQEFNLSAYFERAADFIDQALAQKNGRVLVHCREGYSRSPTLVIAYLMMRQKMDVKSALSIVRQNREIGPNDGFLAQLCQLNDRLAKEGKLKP
Chain of 1-phosphatidylinositol 4,5-bisphosphate phosphodiesterase gamma-1 (P19174 whole entry): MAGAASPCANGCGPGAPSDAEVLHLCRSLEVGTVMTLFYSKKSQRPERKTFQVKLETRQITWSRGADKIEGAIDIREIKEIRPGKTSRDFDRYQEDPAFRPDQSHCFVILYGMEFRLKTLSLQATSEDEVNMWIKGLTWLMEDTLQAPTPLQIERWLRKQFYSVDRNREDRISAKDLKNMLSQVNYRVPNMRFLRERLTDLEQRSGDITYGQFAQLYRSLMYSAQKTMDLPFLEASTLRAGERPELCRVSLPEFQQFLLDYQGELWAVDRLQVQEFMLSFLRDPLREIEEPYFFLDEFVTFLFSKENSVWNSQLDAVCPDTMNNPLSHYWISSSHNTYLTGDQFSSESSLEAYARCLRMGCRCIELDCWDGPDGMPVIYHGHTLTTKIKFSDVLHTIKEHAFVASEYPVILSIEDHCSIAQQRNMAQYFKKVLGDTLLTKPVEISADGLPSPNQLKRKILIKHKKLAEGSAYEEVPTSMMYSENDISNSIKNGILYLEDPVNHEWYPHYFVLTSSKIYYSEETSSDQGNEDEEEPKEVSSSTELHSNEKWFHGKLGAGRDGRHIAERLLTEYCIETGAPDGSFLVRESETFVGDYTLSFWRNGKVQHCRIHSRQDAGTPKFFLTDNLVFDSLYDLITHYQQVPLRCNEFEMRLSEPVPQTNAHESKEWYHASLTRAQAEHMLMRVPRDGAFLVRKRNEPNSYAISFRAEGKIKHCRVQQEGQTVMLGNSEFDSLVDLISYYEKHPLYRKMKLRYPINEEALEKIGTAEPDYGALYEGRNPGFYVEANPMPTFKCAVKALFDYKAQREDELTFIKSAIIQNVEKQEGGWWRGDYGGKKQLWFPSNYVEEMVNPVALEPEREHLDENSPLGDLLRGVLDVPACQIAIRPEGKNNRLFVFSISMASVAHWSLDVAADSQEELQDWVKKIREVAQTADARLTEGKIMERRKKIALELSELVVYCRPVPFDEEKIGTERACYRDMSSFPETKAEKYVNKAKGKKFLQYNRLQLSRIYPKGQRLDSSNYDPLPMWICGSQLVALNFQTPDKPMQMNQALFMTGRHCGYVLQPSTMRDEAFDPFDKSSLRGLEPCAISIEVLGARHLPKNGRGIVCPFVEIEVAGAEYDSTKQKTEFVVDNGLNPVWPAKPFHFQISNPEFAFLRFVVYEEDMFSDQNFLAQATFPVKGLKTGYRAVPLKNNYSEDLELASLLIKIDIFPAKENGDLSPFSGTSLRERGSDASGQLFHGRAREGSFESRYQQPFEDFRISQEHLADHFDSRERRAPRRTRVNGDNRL
Chain of Induced myeloid leukemia cell differentiation protein Mcl-1 (Q07820 whole entry): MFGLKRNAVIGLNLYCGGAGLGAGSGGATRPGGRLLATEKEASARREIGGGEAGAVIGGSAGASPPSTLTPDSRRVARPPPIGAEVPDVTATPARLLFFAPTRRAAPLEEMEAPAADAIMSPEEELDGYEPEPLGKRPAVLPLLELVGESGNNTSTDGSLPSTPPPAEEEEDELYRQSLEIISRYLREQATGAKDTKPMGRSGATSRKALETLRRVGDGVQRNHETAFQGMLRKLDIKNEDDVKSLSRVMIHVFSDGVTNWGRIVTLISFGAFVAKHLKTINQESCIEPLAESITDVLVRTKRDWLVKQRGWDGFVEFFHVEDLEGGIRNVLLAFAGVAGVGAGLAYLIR
Chain of Paired box protein Pax-8 (Q06710 whole entry): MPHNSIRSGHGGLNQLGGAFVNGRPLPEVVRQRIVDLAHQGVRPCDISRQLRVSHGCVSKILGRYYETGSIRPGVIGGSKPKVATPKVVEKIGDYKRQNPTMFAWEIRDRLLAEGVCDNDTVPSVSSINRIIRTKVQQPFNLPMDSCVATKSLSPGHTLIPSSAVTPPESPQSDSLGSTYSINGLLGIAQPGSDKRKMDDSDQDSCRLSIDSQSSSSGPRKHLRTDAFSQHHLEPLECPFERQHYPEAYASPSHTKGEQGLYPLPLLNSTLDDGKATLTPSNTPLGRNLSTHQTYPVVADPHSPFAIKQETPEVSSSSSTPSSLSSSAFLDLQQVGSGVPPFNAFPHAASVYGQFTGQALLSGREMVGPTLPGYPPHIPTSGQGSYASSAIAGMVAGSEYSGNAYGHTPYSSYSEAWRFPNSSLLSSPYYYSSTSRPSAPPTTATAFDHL
Chain of Apoptotic protease-activating factor 1 (O14727 whole entry): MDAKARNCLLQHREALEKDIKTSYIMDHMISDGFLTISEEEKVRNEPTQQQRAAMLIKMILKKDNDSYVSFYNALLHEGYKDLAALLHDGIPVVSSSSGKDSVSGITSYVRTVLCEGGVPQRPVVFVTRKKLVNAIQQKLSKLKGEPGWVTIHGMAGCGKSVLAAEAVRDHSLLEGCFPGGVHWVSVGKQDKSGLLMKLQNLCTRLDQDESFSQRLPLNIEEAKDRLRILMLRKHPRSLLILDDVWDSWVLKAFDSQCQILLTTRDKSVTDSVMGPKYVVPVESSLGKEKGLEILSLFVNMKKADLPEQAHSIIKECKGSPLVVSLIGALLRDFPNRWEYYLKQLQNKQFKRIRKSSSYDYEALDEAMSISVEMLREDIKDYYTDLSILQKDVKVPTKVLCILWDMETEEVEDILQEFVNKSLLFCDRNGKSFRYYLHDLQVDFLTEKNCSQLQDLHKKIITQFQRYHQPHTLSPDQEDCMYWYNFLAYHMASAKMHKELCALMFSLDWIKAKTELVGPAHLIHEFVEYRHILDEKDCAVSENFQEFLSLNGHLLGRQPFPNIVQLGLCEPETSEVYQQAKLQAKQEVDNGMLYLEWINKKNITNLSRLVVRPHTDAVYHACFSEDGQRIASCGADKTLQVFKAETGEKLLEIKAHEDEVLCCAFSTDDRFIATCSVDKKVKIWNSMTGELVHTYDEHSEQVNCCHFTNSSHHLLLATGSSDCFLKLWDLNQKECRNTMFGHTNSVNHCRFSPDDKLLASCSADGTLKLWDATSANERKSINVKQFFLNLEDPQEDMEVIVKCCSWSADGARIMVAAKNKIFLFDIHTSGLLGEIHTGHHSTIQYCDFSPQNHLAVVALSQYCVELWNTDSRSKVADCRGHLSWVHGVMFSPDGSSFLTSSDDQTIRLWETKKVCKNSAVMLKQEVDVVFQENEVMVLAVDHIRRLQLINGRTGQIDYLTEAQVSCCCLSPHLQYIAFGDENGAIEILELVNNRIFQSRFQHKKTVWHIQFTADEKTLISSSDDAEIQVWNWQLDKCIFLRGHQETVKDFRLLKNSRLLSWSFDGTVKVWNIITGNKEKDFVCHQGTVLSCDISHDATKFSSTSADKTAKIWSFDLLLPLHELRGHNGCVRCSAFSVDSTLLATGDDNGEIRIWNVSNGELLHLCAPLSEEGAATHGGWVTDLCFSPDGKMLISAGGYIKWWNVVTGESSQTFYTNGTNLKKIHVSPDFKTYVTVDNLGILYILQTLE
Chain of COUP transcription factor 2 (P24468 whole entry): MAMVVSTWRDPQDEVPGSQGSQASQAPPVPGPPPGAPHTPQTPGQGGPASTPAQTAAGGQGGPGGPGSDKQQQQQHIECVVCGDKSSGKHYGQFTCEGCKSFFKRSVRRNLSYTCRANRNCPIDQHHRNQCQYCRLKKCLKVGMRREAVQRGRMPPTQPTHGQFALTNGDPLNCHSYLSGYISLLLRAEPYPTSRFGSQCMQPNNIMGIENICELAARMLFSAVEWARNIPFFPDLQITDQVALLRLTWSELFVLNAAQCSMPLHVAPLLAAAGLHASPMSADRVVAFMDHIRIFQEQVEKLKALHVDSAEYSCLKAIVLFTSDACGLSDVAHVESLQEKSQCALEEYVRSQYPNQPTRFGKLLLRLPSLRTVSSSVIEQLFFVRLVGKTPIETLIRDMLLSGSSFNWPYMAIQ

With `O=C(NCc1nc2ccccc2[nH]1)C1=C[C@@H](c2ccc(Br)cc2)C[C@@H](OCCCCO)O1` the IC50 [1] was 0.27 µM (active), the IC50 [2] was 83.3 µM (inactive) and the IC50 [3] was 0.551 µM (active). For the same compound, the IC50 [4] was 48.4 µM (inactive).

With `CC(=O)Nc1ccc2c(CSc3nncs3)cc(=O)oc2c1` the AC50 [5] was 26.5 µM (active).

With `Cc1ccc(-c2cc3cccc[n+]3cc2-c2ccc(C)cc2)cc1` the AC50 (INS1) was 0.572 µM (active), the EC50 (cells [6]) was 0.019 µM (active) and the EC50 [7] was > 60 µM (not active). For the same compound, the EC50 [8] was < 0.1 µM (active) and the IC50 [9] was 5.1 µM (active).

In the case of `CC(C)(C)c1nnc(NC(=O)CCS(=O)(=O)c2ccccc2)s1`, the EC50 [10] was 1.09 µM (active), the AC50 [11] was 50.7 µM (active) and the AC50 [12] was > 100 µM (inactive). For the same compound, the AC50 [13] was 48.2 µM (active), the AC50 (Paired box protein Pax-8) was 4.6 µM (active) and the AC50 [14] was 25 µM (active). The AC50 [15] was > 100 µM (inactive), the AC50 [16] was > 52 µM (inactive) and the EC50 [17] was > 150 µM (inactive). For the same compound, the AC50 [18] was 4.22 µM (active).

In the case of `O=C(O)c1cccc(-c2ccc(/C=c3/sc4nc5ccccc5n4c3=O)o2)c1`, the IC50 [19] was 101 µM (active), the IC50 [20] was 4.98 µM (active) and the EC50 [21] was 9.48 µM (active). The IC50 [22] was 8.7 µM (active), the IC50 [23] was > 122 µM (inactive) and the IC50 [24] was 118 µM (not active). For the same compound, the IC50 [25] was > 122 µM (inactive), the IC50 [26] was > 66.6 µM (inactive) and the IC50 [27] was 1.74 µM (active). For the same compound, the IC50 [28] was 2.27 µM (active).

With `CCOc1ccccc1/N=c1\oc2cc(O)ccc2cc1C(=O)NCC1CCCO1` (centres undefined) the AC50 (cells [29]) was > 70 µM (inactive), the EC50 [30] was > 120 µM (not active) and the EC50 [31] was > 120 µM (not active). The EC50 [32] was > 120 µM (not active).

— ChEMBL document CHEMBL1201862, “PubChem BioAssay data set” (2004)
